Data: patent publication US20260265256A1 (IMPACT THERAPEUTICS (SHANGHAI), INC., priority 2023, published 2026)

What was measured:
[1] = target: recombinant poly(ADP-ribose) polymerase 2 (PARP2) (Homo sapiens, UniProt Q9UGN5); assay: PARP2 chemiluminescent assay; format: biochemical; settings: PARP2 enzyme activity, chemiluminescence, 40 ng enzyme/well
Method: The solution of recombinant poly(ADP-ribose) polymerase 1 and 2 (PARP1 and PARP2) (40 ng enzyme/well) and the compounds to be tested were mixed, respectively. The solutions were added to a 96-well plate coated with histone mixture, incubated at room temperature for 1 h, then 50 μL 0.3 ng/mL Streptavidin-HRP was added to each well. The plates were incubated for 30 minutes at room temperature. Finally, the plates were treated with streptavidin-HRP followed by addition of the ELISA ECL substrate to produce chemiluminescence that can be measured using a chemiluminescence reader. Inhibition of the tested compound to PARP1/2 enzyme activity was calculated according to the following formula. [formula] IC50 value is obtained by fitting the s-shaped dose response curve equation by using XL Fit software.

MDA-MB-436 cells = assay: Growth inhibition assay against BRCA mutant human breast cancer MDA-MB-436 cell line (CCK-8, 7 days); format: cell-based; settings: 168 h, MDA-MB-436, 7 days, read-out: IC50 (nM), proliferation of human breast cancer cells MDA-MB-436
Method: The cells were cultured in complete medium (DMEM medium+10% FBS+Insulin+glutathione). When the confluence reached about 80%, cells were digested and gently dispensed from the bottom of the dish with a 1 mL pipette. Cell suspension was collected and centrifuged at 500 rpm for 3 min. The supernatant was discarded, and the cell pellet were re-suspended in complete medium. The cells were seeded into a culture dish at an appropriate proportion, and then cultured in a 5% CO2 incubator at 37° C. The assay was carried out when the cells were in optimum condition and the confluence was reached 80%. Cells in the logarithmic growth phase were taken to centrifugate, and the culture supernatant was removed. The cells were resuspended in refresh complete medium and counted. The resuspended cells were seeded at 3000/well in a 96-well plate and incubated at 37° C., 5% CO2 incubator overnight. […] The solution was mixed by oscillation. 0.10% DMSO was used as the control.
The next day, the 96-well plate inoculated with cells was taken out from the incubator, and the culture supernatant was removed. Then fresh medium of 195 uL/well and 5 μL/well of 40× test compound solution as mentioned above were added into the 96 well plate, respectively. Finally, the plate was incubated for 7 days in a 37° C. 5% CO2 incubator. The medium containing compound was changed on the fourth day. After 7 days, 20 μL of CCK-8 was added to each well and shaken gently, then was cultured for 4 hours. The plate was shaken for 5 min after incubation, the absorbance values of 450 nm or 650 nm wavelengths were recorded respectively (OD=absorbance value of 450 nm−absorbance value of 650 nm) by using the multifunction readout instrument.
Data were analyzed by software GraphPad Prism 6.0. The inhibitory activity of compounds on cell proliferation was plotted using cell survival rate against the compound concentration as coordinates. Cell survival rate %=(ODcompound−ODbackground)/(ODDMSO−ODbackground)×100.
Table 2 summarizes the inhibitory effect data (IC50) of the compounds on the proliferation of human breast cancer cells MDA-MB-436.

Sequence of recombinant poly(ADP-ribose) polymerase 2 (PARP2) (Q9UGN5 whole entry): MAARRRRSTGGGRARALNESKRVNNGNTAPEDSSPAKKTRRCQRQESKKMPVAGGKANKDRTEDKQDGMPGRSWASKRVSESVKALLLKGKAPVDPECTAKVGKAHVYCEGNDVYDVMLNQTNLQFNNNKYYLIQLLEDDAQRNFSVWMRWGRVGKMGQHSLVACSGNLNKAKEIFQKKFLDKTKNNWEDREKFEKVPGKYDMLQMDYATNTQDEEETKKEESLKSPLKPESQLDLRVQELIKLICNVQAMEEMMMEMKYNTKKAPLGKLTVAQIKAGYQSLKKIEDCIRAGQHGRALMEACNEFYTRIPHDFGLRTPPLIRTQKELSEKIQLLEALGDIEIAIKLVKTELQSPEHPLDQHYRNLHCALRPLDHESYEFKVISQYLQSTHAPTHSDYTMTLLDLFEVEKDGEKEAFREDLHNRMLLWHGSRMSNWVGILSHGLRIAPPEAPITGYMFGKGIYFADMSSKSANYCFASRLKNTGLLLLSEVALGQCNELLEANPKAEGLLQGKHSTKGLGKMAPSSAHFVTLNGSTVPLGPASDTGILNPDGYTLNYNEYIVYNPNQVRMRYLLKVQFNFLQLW

Row | Structure (SMILES) | IC50 [1] [nM] | IC50 (MDA-MB-436 cells) [nM]
1 | CNC(=O)c1ccc(-n2cc3c(n2)CCN(Cc2ccc4c([nH]c(=O)c5c(C)cnn54)c2F)C3)cn1 [Example 10-1, 5-(5-((6-fluoro-3-methyl-4-oxo-4,5-dihydropyrazolo[1,5-a]quinoxalin-7-yl)methyl)-4,5,6,7-tetrahydro-2H-pyrazolo[4,3-c]pyridin-2-yl)-N-methylpicolinamide] | > 10000 | > 100
2 | CNC(=O)c1ccc(-n2ncc3c2CCN(Cc2ccc4c([nH]c(=O)c5c(C)cnn54)c2F)C3)cn1 [Example 10-2, 5-(5-((6-fluoro-3-methyl-4-oxo-4,5-dihydropyrazolo[1,5-a]quinoxalin-7-yl)methyl)-4,5,6,7-tetrahydro-1H-pyrazolo[4,3-c]pyridin-1-yl)-N-methylpicolinamide] | > 10000 | > 100
3 | O=C(NC1CC1)c1ccc(-n2cc3c(n2)CN(Cc2ccc4c([nH]c(=O)c5c(F)cnn54)c2F)C3)c(F)n1 [Example 21, N-cyclopropyl-5-(5-((3,6-difluoro-4-oxo-4,5-dihydropyrazolo[1,5-a]quinoxalin-7-yl)methyl)-5,6-dihydropyrrolo[3,4-c]pyrazol-2(4H)-yl)-6-fluoropicolinamide] | > 10000 | 2.14
4 | CNC(=O)c1ccc(-n2cc3c(n2)CN(Cc2ccc4c([nH]c(=O)c5c(C(F)(F)F)cnn54)c2F)C3)c(F)n1 [Example 26, 5-(5-((6-fluoro-4-oxo-3-(trifluoromethyl)-4,5-dihydropyrazolo[1,5-a]quinoxalin-7-yl)methyl)-5,6-dihydropyrrolo[3,4-c]pyrazol-2(4H)-yl)-6-fluoro-N-methylpicolinamide] | 64 | 13
5 | CNC(=O)c1ccc(-c2nc3c(o2)CN(Cc2ccc4c([nH]c(=O)c5c(C)cnn54)c2F)C3)cn1 [Example 32, 5-(5-((6-fluoro-3-methyl-4-oxo-4,5-dihydropyrazolo[1,5-a]quinoxalin-7-yl)methyl)-5,6-dihydro-4H-pyrrolo[3,4-d]oxazol-2-yl)-N-methylpicolinamide] |  | 18.4
6 | CNC(=O)c1ccc(-c2nc3c(s2)CN(Cc2ccc4c([nH]c(=O)c5c(C)cnn54)c2F)C3)cn1 [Example 33, 5-(5-((6-fluoro-3-methyl-4-oxo-4,5-dihydropyrazolo[1,5-a]quinoxalin-7-yl)methyl)-5,6-dihydro-4H-pyrrolo[3,4-d]thiazol-2-yl)-N-methylpicolinamide] |  | > 100
7 | CNC(=O)c1ccc(-c2nc3c([nH]2)CN(Cc2ccc4c([nH]c(=O)c5c(C)cnn54)c2F)C3)cn1 [Example 34, 5-(5-((6-fluoro-3-methyl-4-oxo-4,5-dihydropyrazolo[1,5-a]quinoxalin-7-yl)methyl)-1,4,5,6-tetrahydropyrrolo[3,4-d]imidazol-2-yl)-N-methylpicolinamide] | 40 | 3.33
8 | CNC(=O)c1ccc(-n2nc3c(c2C)CN(Cc2ccc4c([nH]c(=O)c5c(F)cnn54)c2F)C3)cn1 [Example 40, 5-(5-((3,6-difluoro-4-oxo-4,5-dihydropyrazolo[1,5-a]quinoxalin-7-yl)methyl)-3-methyl-5,6-dihydropyrrolo[3,4-c]pyrazol-2(4H)-yl)-N-methylpicolinamide] |  | > 100
9 | CNC(=O)c1ccc(-c2nc3c(o2)CN(Cc2ccc4c([nH]c(=O)c5c(F)cnn54)c2F)C3)cn1 [Example 41, 5-(5-((3,6-difluoro-4-oxo-4,5-dihydropyrazolo[1,5-a]quinoxalin-7-yl)methyl)-5,6-dihydro-4H-pyrrolo[3,4-d]oxazol-2-yl)-N-methylpicolinamide] | 61.1 | 1.6
10 | CNC(=O)c1ccc(-c2nc3c([nH]2)CN(Cc2ccc4c([nH]c(=O)c5c(F)cnn54)c2F)C3)cn1 [Example 43, 5-(5-((3,6-difluoro-4-oxo-4,5-dihydropyrazolo[1,5-a]quinoxalin-7-yl)methyl)-1,4,5,6-tetrahydropyrrolo[3,4-d]imidazol-2-yl)-N-methylpicolinamide] | 5.18 | 2.84
11 | CNC(=O)c1ccc(-c2nc3c(n2C)CN(Cc2ccc4c([nH]c(=O)c5c(F)cnn54)c2F)C3)cn1 [Example 44, 5-(5-((3,6-difluoro-4-oxo-4,5-dihydropyrazolo[1,5-a]quinoxalin-7-yl)methyl)-1-methyl-1,4,5,6-tetrahydropyrrolo[3,4-d]imidazol-2-yl)-N-methylpicolinamide] |  | > 100
12 | CNC(=O)c1ccc(-c2cc3c(o2)CN(Cc2ccc4c([nH]c(=O)c5c(F)cnn54)c2F)C3)cn1 [Example 46, 5-(5-((3,6-difluoro-4-oxo-4,5-dihydropyrazolo[1,5-a]quinoxalin-7-yl)methyl)-5,6-dihydro-4H-furo[2,3-c]pyrrol-2-yl)-N-methylpicolinamide] |  | 2.16
13 | CNC(=O)c1ccc(-c2cc3c(s2)CN(Cc2ccc4c([nH]c(=O)c5c(F)cnn54)c2F)C3)cn1 [Example 47, 5-(5-((3,6-difluoro-4-oxo-4,5-dihydropyrazolo[1,5-a]quinoxalin-7-yl)methyl)-5,6-dihydro-4H-thieno[2,3-c]pyrrol-2-yl)-N-methylpicolinamide] |  | 14.4
14 | CCNC(=O)c1ccc(-n2cc3c(n2)CN(Cc2ccc4c([nH]c(=O)n5cc(C)nc45)c2F)C3)cn1 [Example 50, N-ethyl-5-(5-((7-fluoro-2-methyl-5-oxo-5,6-dihydroimidazo[1,2-c]quinazolin-8-yl)methyl)-5,6-dihydropyrrolo[3,4-c]pyrazol-2(4H)-yl)picolinamide] | 180 | 1.01
15 | CCNC(=O)c1ccc(-n2cc3c(n2)CN(Cc2ccc4c([nH]c(=O)c5occc54)c2F)C3)cn1 [Example 53, N-ethyl-5-(5-((6-fluoro-4-oxo-4,5-dihydrofuro[2,3-c]quinolin-7-yl)methyl)-5,6-dihydropyrrolo[3,4-c]pyrazol-2(4H)-yl)picolinamide] | 157 | 1.21
16 | CNC(=O)c1ccc(-n2cc3c(n2)CN(Cc2ccc4c([nH]c(=O)c5cc(F)nn54)c2F)C3)c(F)n1 [Example 56, 5-(5-((2,6-difluoro-4-oxo-4,5-dihydropyrazolo[1,5-a]quinoxalin-7-yl)methyl)-5,6-dihydropyrrolo[3,4-c]pyrazol-2(4H)-yl)-6-fluoro-N-methylpicolinamide] | 2760 | 4.66
17 | CNC(=O)c1ccc(N2CC3CN(Cc4ccc5c([nH]c(=O)c6c(F)cnn65)c4F)CC3C2)c(F)n1 (stereo not drawn) [Example 61, 5-(5-((3,6-difluoro-4-oxo-4,5-dihydropyrazolo[1,5-a]quinoxalin-7-yl)methyl)hexahydropyrrolo[3,4-c]pyrrol-2(1H)-yl)-6-fluoro-N-methylpicolinamide] |  | > 100
18 | CNC(=O)c1ccc(-n2cc3c(c2)CN(Cc2ccc4c([nH]c(=O)c5c(F)cnn54)c2F)C3)c(F)n1 [Example 62, 5-(5-((3,6-difluoro-4-oxo-4,5-dihydropyrazolo[1,5-a]quinoxalin-7-yl)methyl)-5,6-dihydropyrrolo[3,4-c]pyrrol-2(4H)-yl)-6-fluoro-N-methylpicolinamide] | 278 | 0.44
19 | CNC(=O)c1ccc(N2CC3CN(Cc4ccc5c([nH]c(=O)c6c(C)cnn65)c4F)CC3C2)c(F)n1 (stereo not drawn) [Example 64, 6-fluoro-5-(5-((6-fluoro-3-methyl-4-oxo-4,5-dihydropyrazolo[1,5-a]quinoxalin-7-yl)methyl)hexahydropyrrolo[3,4-c]pyrrol-2(1H)-yl)-N-methylpicolinamide] |  | > 100
